Here are results for one compound from patent publication US20260183301A1, “TREATING DISEASES AND DISORDERS WITH IRAK4-MODIFYING COMPOUNDS” (Curis, Inc., priority 2022, published 2026).

The subject of data set [1] is AML or high risk MDS. Briefly: Phase 1 study in AML or high risk MDS: marrow response. It counts as in vivo, human. The procedure:
(§1) This study will be conducted in 2 parts: an initial dose escalation and dose expansion phase. […] Three patients with AML or MDS will be enrolled at the designated dose. If none of the first 3 patients experience a DLT during the first cycle, patients may be enrolled into the next higher dose level of 300 mg bid until a safe and effective RP2D is established.
(§2) This study is expected to enroll approximately 18 patients to establish the initial RP2D.
(§3) The major study inclusion and exclusion criteria are as follows: Relapsed or refractory AML (primary or secondary, including treatment-related) after at least one standard treatment (including chemotherapy, re-induction therapy or stem cell transplantation) based on the assessment of the investigator or high/very high risk relapsed/refractory MDS (IPSS—R criteria), following at least 6 cycles of hypomethylating agents [HMA] or evidence of early progression.

Data set [2] is described as follows: Oral pharmacokinetics in humans. Type of data set: in vivo, human.
Experimental: (§5) Seven dosing cohorts included 50 and 100 mg QD, and 50, 100, 200, 300, or 400 mg BID of daily continuous oral monotherapy in 21-Day cycles. Objective included safety and tolerance (primary), pk/pd and early efficacy (secondary), and biomarker correlations (exploratory). 31 patients with resistant or refractory, advanced NHL have been enrolled.
The subject of data set [3] is in vivo models of non-Hodgkin's lymphoma. Put plainly: In vivo models of non-Hodgkin's lymphoma: tumor growth. Particulars: FIGS. 22A-C, each model.
The nature of data set [4]: Phase 1 study in AML or high risk MDS: safety (DLT). It counts as in vivo. The procedure:
as §1, §2, §3

Data set [5] concerns NF-kB p-p50 S337. Briefly: Western blot of NF-kB p-p50 S337 in TF-1 (AML) cells. It counts as cell-based. The note with it: 3 μM and 10 μM, 48 h, vs DMSO. The procedure: (§4) At 48 h post-treatment, cell lysates were obtained. Protein sample concentration was quantified and equal amount 20 μg of whole protein extract was loaded in each well of SDS-polyacrylamide gel. Cell extracts were separated by 10% SDS-PAGE, transferred to nitrocellulose membrane, and probed as indicated. The following antibodies were used for immunoblot analysis: NF-kB p-p50 S337 (Santa Cruz Biotechnology) and b-actin (Cell Signaling Technology).
(In general: A western blot detects proteins with antibodies after separation by electrophoresis.)

Data set [6] deals with NF-kappaB p-p50. Put plainly: IHC of NF-kappaB p-p50 in paired tumor biopsies of NHL patients before and after treatment. Particulars: paired tumor biopsy samples (3 cases) before and after treatment. Type of data set: in vivo, human. The procedure:
Formalin-fixed, paraffin-embedded sections of human tonsil and lymphoma were used. Tissue sections (5 μm) were deparaffinized, and antigen retrieval was carried out at 90-100° C. in citrate buffer for 10-40 min. The sections were incubated in 1% […] for 10 minutes to quench endogenous tissue peroxidase. Tissue sections were then incubated with primary NF-κB p-p50-specific antibody (at 1:300 dilution) for approximately 16 h at 4° C. The primary NF-κB p-p50-specific antibody used NF-κB p-p50 (S337), sc-271908 from Santa Cruz Biotechnology.
The slides were stained using a standard EnVision+System-HRP kit (DAKO, Carpinteria, CA) according to the manufacture's protocol. Immunohistochemical reactions were developed with diaminobenzidine as the chromogenic peroxidase substrate, and slides were counterstained with hematoxylin. Negative control samples included replacement of the primary antibody with nonimmune IgG1 (Dako).

The test system of data set [7] is NF-kB p-p50 S337. Put plainly: Western blot of NF-kB p-p50 S337 in OCL-LY10 cells. Particulars: 3 μM and 10 μM, 48 h, vs DMSO. Type of data set: cell-based. As to the method:
as §4

The subject of data set [8] is THP-1 xerographs. Put plainly: THP-1 leukemic xerographs: disease burden. It counts as in vivo. The note with it: 6 weeks of treatment at 12.5 mg/kg.
The test system of data set [9] is cytokine. Put plainly: Pharmacodynamic cytokine changes in Phase I NHL patients. Type of data set: in vivo, human.
Data set [10] has as its system Waldenstrom's macroglobulinemia (WM). Put plainly: Phase 1 dose-escalation study, WM patient case: serum IgM, m-protein and response. It counts as in vivo, human. From the text:
The patient remained asymptomatic for over 4 years with a slow increase in m-protein and IgM during that time. By mid-2017 they started to experience increased fatigue. […] There was no evidence of CXCR4 genomic alteration. […] Several options were discussed including clinical trials and standard of care Bruton's tyrosine kinase inhibitor (BTKi) therapy.
Quantitative immunoglobulins and serum protein electrophoresis were obtained each cycle to determine response to treatment (FIG. 1).
The patient initiated treatment at the first dose level, 50 mg. […] Using a standard 3+3 design the subsequent dose level, 100 mg po BID, was cleared per protocol. […] They reported a significant improvement in their quality of life with resolution of fatigue and returned to a rigorous daily exercise program that they had been unable to perform for the last 2 years due to WM-related symptoms. […] Based on evolving safety data at higher dose levels, the patient was escalated to […] starting with cycle 20 in 1/2020.

In data set [11] the test system is resistant or refractory, advanced NHL. Put plainly: Phase I dose escalation trial of oral monotherapy in NHL: tumor reduction. Type of data set: in vivo, human. The note with it: all doses.
Experimental: as §5

“Also recorded” adds a separate entry of the source.

For `Cc1cc(-c2nc(C(=O)Nc3cc4oc(N5CCOCC5)nc4nc3N3CC[C@@H](O)C3)co2)ccn1` [Compound 1, emavusertib], the marrow blasts entry in [1] (all initial patients, cycle 1) is recorded as “marrow blast reduction”. Besides, the marrow complete responses result in data set [1] (initial patients, cycle 1) is reported as “several marrow complete responses”. Moreover, in data set [1] (relapsed/refractory AML and high-risk MDS, ongoing Phase 1 study), the clinical activity result is reported as “clinical activity”. Besides, the accumulation result in data set [2] (multiple daily single dose administration) is recorded as “Minimal to no accumulation”; in data set [2] (steady state, multiple twice daily dose administration) it was “Moderate accumulation”. Also, the absorption entry in [2] (oral administration) is “rapidly absorbed”. Moreover, in data set [2] (oral administration), the exposure versus dose entry is “dose-proportional increase in exposure”. In data set [2] (oral administration, post dose), the “time of maximum plasma concentrations” value lay within 0.5 to 8 h. Besides, in data set [3], the tumor growth result is reported as “reduced tumor growth”. The DLT entry in data set [4] (Cohort 1, 200 mg BID, 3 patients with hr-MDS, 1st cycle) is recorded as “No DLT”; in data set [4] (Cohort 2, 300 mg BID, first 3 patients), “No DLT”. The “dose reduction for Gr. 3 dizziness” value in data set [4] (Cohort 1, 200 mg BID, C2) came out at 1. The “expression of NF-kB p-p50 S337” value in data set [5] and in [7] was “downregulated” throughout. For the same compound, the “NF-kappaB p-p50 expression in tumors” value in data set [6] is reported as “significant downregulation; also recorded: inhibited”. Besides, the disease burden entry in [8] was “decreased the disease burden”. The “pharmacodynamic changes in cytokines” value in data set [9] is “cytokine reductions”. Also, the “fatigue (baseline symptom)” value in [10] (WM patient, 200 mg po BID, by summer of 2019) is recorded as “completely resolved”. The “dose dependence of response / tumor burden” value in data set [10] (human patient with intra-patient dose escalation) is listed as “shrinking in a dose-dependent manner; also recorded: dose/response relationship; also recorded: dose-dependent objective response”. Also, in data set [11], the “evaluable patients with overall tumor burden decreases of ≥20% from baseline” value is listed as “Eight of 28”.
